# Laboratory results: patent US20210113518A1, “Composition And Use Thereof Against Drugs Induced Phototoxicity” (AC BIOSCIENCE SA, priority 2018, published 2021)
# Legend:
# Format in all cases: cell-based
# human neutrophils [1] = assay: Neutrophils degranulation assessed by myeloperoxidase (MPO) release, fMLP stimulation, MPO enzyme immunoassay; details: fMLP 45 minutes at 37° C.
# Protocol: Neutrophils were stimulated with formyl-methionyl-leucyl-phenylalanine for 45 minutes at 37° C. MPO released from neutrophils were assayed by using an MPO enzyme immunoassay. [table]
# NIH-3T3 fibroblasts = assay: Chlorpromazine (CPZ)-induced cell phototoxicity under UVA, protective effect
# Excerpt: Chlorpromazine (CPZ) is a neuroleptic drug widely used in medicine because of its tranquilizing and antipsychotic properties. CPZ often causes side effects including cutaneous photosensitization and ocular damage.
# Balb/c 3T3 fibroblasts = assay: Norfloxacin 3T3 phototoxicity test with or without DHQ treatment (Neutral Red uptake); details: for Photoprotective effect against norfloxacin phototoxicity: increasing concentrations in treatment medium, UVA
# Protocol: The phototoprotective potential of Dihydroquercetin was assessed using a method based on Norfloxacin phototoxicity test on fibroblasts […]. […] The study was aimed at evaluating the photoprotective potential of one test item, dihydroquercetin, against the deleterious effects of UVA exposure in presence of phototoxic substances such as Norfloxacin or chlorpromazin. Briefly, Balb/c 3T3 fibroblasts were maintained in culture for 48 h for formation of monolayers. Norfloxacin 3T3 phototoxicity test was performed in presence or absence of DHQ treatment in different conditions. After another 24 h incubation period, cell viability was determined by Neutral Red uptake. For each condition, cell viability was expressed as percentage relative to untreated solvent controls. Then the dose-response curves (at the EC50 level) obtained for Norfloxacin with or without DHQ treatment was compared to assess DHQ photoprotective potential.
# human neutrophils [2] = assay: Polymorphonuclear neutrophils oxidative burst, ROS production by chemiluminescence (PMA activation); details: neutrophils primed with TNF-α, activation by 100 ng/ml PMA; luminol chemiluminescence; FIG. 5
# Protocol: ROS production is measured using a chemiluminescence standard procedure: briefly, one hundred microliters of human neutrophils (4×10^6/mL) were primed with TNF-α at 37° C. for 25 minutes. 100 μL luminol (1 μM final concentration) and HRP (62.5 U/mL final concentration) in HBSS were added, and 150-μL aliquots were transferred to a prewarmed 96-well luminometer plate. Light emission was recorded by a Berthold MicroLumat Plus luminometer (Berthold Technologies, Hartfordshire, United Kingdom) (data output is in relative light units per second)
structure (smiles),measurement,setting,value
CC(C)=CCC[C@](C)(O)C1CC=C(C)CC1 (stereo partly shown) [Bisabolol],MPO release,human neutrophils [1]; Bisabolol 20 μM,810 U/mL
same,MPO release,human neutrophils [1]; Bisabolol 40 μM,500 U/mL
same,MPO release,human neutrophils [1]; Bisabolol 100 μM,250 U/mL
same,MPO release,human neutrophils [1]; Bisabolol 200 μM,248 U/mL
"CN(C)CCCN1c2ccccc2Sc2ccc(Cl)cc21 [CPZ, Chlorpromazine, reference compound]",IC50,"NIH-3T3 fibroblasts; Mus musculus, NIH3T3, light or radiation study, control experiment (no treatment), UVA",0.33 µg/mL
"O=C1c2c(O)cc(O)cc2O[C@H](c2ccc(O)c(O)c2)[C@H]1O [DHQ, Dihydroquercetin]",Photoprotective effect against norfloxacin phototoxicity,Balb/c 3T3 fibroblasts,Dose-dependent photoprotective effect
same,Effect on reactive oxygen species (ROS) production,human neutrophils [2],Inhibitory effect
same,Protection against phototoxicity induced by chlorpromazine+UVA,"NIH-3T3 fibroblasts; NIH-3T3 fibroblasts, FIG. 4",efficiently protects
"CCn1cc(C(=O)O)c(=O)c2cc(F)c(N3CCNCC3)cc21 [NFX, norfloxacin]",EC50,"Balb/c 3T3 fibroblasts; Mus musculus, BALB/c3T3, light or radiation study, No DHQ treatment, UVA exposure, read-out: NFX EC 50",55 µg/mL
"Nc1ccc(C(=O)O)cc1 [PABA, para-aminobenzoic acid]",Photoprotective effect against norfloxacin phototoxicity,Balb/c 3T3 fibroblasts,no effect
